Test results from US8354443B2, “Cyclopropane indolinone derivatives” (Hoffmann-La Roche Inc., priority 2009, dated 2013).

System: recombinant AMPK proteins (α1β1γ1, α2β1γ1, α1(1-335), α1(1-394) or α2(1-394))
Assay: Scintillation Proximity Assay (AMPK activation)
Assay type: biochemical, human
Details: effective concentration of activator for 50% of maximal enzyme activity; 2 hr at 30° C.; AMPK form not specified
From the text: Recombinant human AMPK α1β1γ1, α2β1γ1 or AMPK a subunit truncations α1 (1-335), α1 (1-394) and α2(1-394) were constructed, expressed and purified as described previously (Pang, T., Zhang, Z. S., Gu, M., Qiu, B. Y., Yu, L. F., Cao, P. R., Shao, W., Su, M. B., Li, J. Y., Nan, F. J., and Li, J. (2008) or purchased from Invitrogen (San Diego, Calif., U.S.A.). Rat liver AMPK heterotrimer enzyme was obtained from Upstate (Billerica, Mass., U.S.A.).
Before the Scintillation Proximity Assay (SPA) assay, 200 nM recombinant AMPK proteins (α1β1γ1, α2β1γ1, α1(1-335), α1(1-394) or α2(1-394)) were fully phosphorylated as described previously (Pang et al., 2008). SPA reactions were performed in 96-well plates at a final volume of 50 μl containing 20 mM Tris-HCl pH 7.5, 5 mM MgCl2, 1 mM DTT, 2 μM biotin-SAMS, 2 μM ATP, 0.2 μCi/well [γ-^33P]ATP, and various amount of activator. Reactions were initiated by the addition of 50 nM recombinant AMPK proteins to the reaction solutions and incubated at 30° C. for 2 hr. After that, reactions were terminated by the addition of 40 μl stop solution containing 80 μg streptavidin-coated SPA beads per well, 50 mM EDTA, 0.1% Triton X-100 in PBS, pH 7.5 and incubated for 1 hr. Finally, a 160 μl suspension solution containing 2.4 M CsCl, 50 mM EDTA, and 0.1% Triton X-100 in PBS (pH 7.5) was added to the reaction solution to suspend SPA beads completely. SPA signals were determined with a Wallac MicroBeta plate counter (PerkinElmer) 30 min later for calculation of the amount of product formed. The amount of products formed in 2 hr was plotted against activator concentrations to determine the effective concentration of the activator (EC50) required for 50% of maximal enzyme activity.

Molecule	EC50 [nM]
CC(C)NC(=O)c1cccc(CN2C(=O)[C@@]3(C[C@H]3c3ccc(Cl)cc3)c3ccccc32)c1 (racemic) [Example 61, (1R,2S) and (1S,2R)-3-((2-(4-chlorophenyl)-2′-oxospiro[cyclopropane-1,3′-indoline]-1′-yl)methyl)-N-isopropylbenzamide]	8670
O=C(c1cccc(N2C(=O)[C@@]3(C[C@H]3c3ccc(Cl)cc3)c3ccccc32)c1)N1CCOCC1 (racemic) [Example 88, (1R,2S) and (1S,2R)-2-(4-chlorophenyl)-1′-(3-(morpholine-4-carbonyl)phenyl)spiro [cyclopropane-1,3′-indolin]-2′-one]	2560
O=C(Nc1cc(C2CC2)n[nH]1)c1cccc(CN2C(=O)[C@]3(C[C@@H]3c3ccc(Cl)cc3)c3ccccc32)c1 (racemic) [Example 116, (1S,2R) and (1R,2S)-3-((2-(4-chlorophenyl)-2′-oxospiro[cyclopropane-1,3′-indoline]-1′-yl)methyl)-N-(3-cyclopropyl-1H-pyrazol-5-yl)benzamide]	4330
O=C1N(CC2CCNCC2)c2ccccc2[C@@]12C[C@@H]2c1ccc(Cl)cc1 (racemic) [Example 124, (1S,2R) and (1R,2S)-2-(4-chlorophenyl)-1′-(piperidin-4-ylmethyl) Spiro[cyclopropane-1,3′-indolin]-2′-one]	5400
O=C(O)Cn1cnc(N2C(=O)[C@]3(C[C@@H]3c3ccc(Cl)cc3)c3ccccc32)c1 (racemic) [Example 80, (1S,2R) and (1R,2S)-2-(4-(2-(4-chlorophenyl)-2′-oxospiro[cyclopropane-1,3′-indoline]-1′-yl)-1 H-imidazol-1-yl)acetic acid]	1250
O=C(O)c1cccc(CN2C(=O)[C@]3(C[C@@H]3c3ccc(F)cc3)c3ccccc32)c1 (racemic) [Example 24, (1S,2R) and (1R,2S)-3-((-2-(4-fluorophenyl)-2′-oxospiro[cyclopropane-1,3′-indoline]-1′-yl)methyl)benzoic acid]	5750
CS(=O)(=O)NC(=O)c1cccc(N2C(=O)[C@@]3(C[C@@H]3c3ccc(Cl)cc3)c3ccccc32)c1 (racemic) [Example 91, (1R,2R) and (1S,2S)-3-(2-(4-chlorophenyl)-2′-oxospiro[cyclopropane-1,3′-indoline]-1′-yl)-N-(methylsulfonyl)benzamide]	1550
N#Cc1ccc([C@H]2C[C@]23C(=O)N(Cc2cccc(C(=O)O)c2)c2ccccc23)cc1 (racemic) [Example 5, (1S,2R) and (1R,2S)-3-((2-(4-cyanophenyl)-2′-oxospiro[cyclopropane-1,3′-indoline]-1′-yl)methyl)benzoic acid]	5300
(1R,2R) and (1S,2S)-((2-(4-(methylsulfonyl)phenyl)-2′-oxospiro[cyclopropane-1,3′-indoline]-1′-yl)methyl)benzoic acid [Example 4]	2200
O=C1N(CCNCCN2CCOCC2)c2ccccc2[C@@]12C[C@@H]2c1ccc(Cl)cc1 (racemic) [Example 128, (1S,2R) and (1R,2S)-2-(4-chlorophenyl)-1′-(2-(2-morpholinoethylamino)ethyl) spiro[cyclopropane-1,3′-indolin]-2′-one]	2040
CN(C)[C@@H]1CCN(CCN2C(=O)[C@@]3(C[C@H]3c3ccc(Cl)cc3)c3ccccc32)C1 (mixture of isomers) [Example 77, (1S,2R)-2-(4-chlorophenyl)-1′-(2-((R)-3-(dimethylamino)pyrrolidin-1-yl)ethyl)spiro[cyclopropane-1,3′-indolin]-2′-one and (1R,2S)-2-(4-chlorophenyl)-1′-(2-((R)-3-(dimethylamino)pyrrolidin-1-yl)ethyl)spiro[cyclopropane-1,3′-indolin]-2′-one]	2170
O=C(O)c1cccc(CN2C(=O)[C@@]3(C[C@@H]3c3ccc(Cl)cc3)c3ccccc32)c1 (racemic) [Example 2, (1R,2R) and (1S,2S)-3-((2-(4-chlorophenyl)-2′-oxospiro[cyclopropane-1,3′-indoline]-1′-yl)methyl)benzoic acid]	960
